Experimental data published in publication PMC9691367, “The PROTAC selectively degrading Bcl-xL represents a novel Hedgehog pathway inhibitor with capacity of combating resistance to Smoothened inhibitors while sparing bone growth” (Theranostics, 2022).

How the values were obtained:
Bcl-2 and Mcl-1 = experiment: Western blot of Bcl-2 and Mcl-1 in NIH-3T3 cells; type: cell-based; settings: 1 µM
Description: (§1) Cells were lysed in cell lysis buffer (50 mM Tris pH 8.0, 150 mM NaCl, 10% glycerol, 1 mM EDTA, 50 mM NaF, and 0.1% NP-40) supplemented with protease and phosphatase inhibitors. Total protein extracts of tissues were generated in radioimmunoprecipitation (RIPA) assay lysis buffer containing complete protease and phosphatase inhibitor cocktail. Protein content was quantified using the Pierce BCA Protein Assay Kit (#23225, Thermo Fisher Scientific). The proteins were separated by SDS-PAGE, electrophoretically transferred to polyvinylidene difluoride (PVDF) blotting membranes (#LC2002, Thermo Fisher Scientific), and subjected to routine immunoblot analysis with primary antibodies as follows: anti-Bcl-2 (#15071), anti-Mcl-1 (#94296), anti-VHL (#68547), anti-CRBN (#71810), and anti-Sufu (#2522) were obtained from Cell Signaling Technology (Danvers, Massachusetts, USA); anti-Bcl-xL (#ab32370), anti-Gli1 (#ab134906), and anti-Smoothened (#ab236465) were obtained from Abcam (Cambridge, CB2 0AX, UK); anti-GAPDH (#60004-1-Ig) and anti-β-tubulin (#10094-1-AP) were purchased from Proteintech Group, Inc. (Rosemont, IL 60018, USA). The results were quantified by densitometry using ImageJ software (NIH).

[1] = test system: IKZF1, IKZF3, SALL4, GSPT1; experiment: Western blot of CRBN neo-substrates in NIH-3T3 cells; type: cell-based; settings: 24 h
Description: as §1, with “(NIH). […]” for “(NIH).”
hydrochloride; DMAP = 4-dimethylaminopyridine; TFA = trifluoroacetic acid; DMF = N,N-dimethylformamide. […]

[2] = test system: bone growth of young mice; experiment: Bone growth of young mice (body weight, Micro-CT, H&E, IHC); type: in vivo, mouse
Description: Skeleton Micro-CT images of mice were taken under anesthesia. The femurs were fixed and stored in 4% PFA at 4 °C. Mice and femurs were scanned using Inveon PET-CT (Siemens). Bone tissues were computed with Inveon Acquisition Workplace (IAW). Image data were visualized and analyzed by Inveon Viewer.
Femurs were fixed in 4% PFA and decalcified in 14% EDTA for 2 weeks at 4 °C. Bone tissues were embedded in paraffin. Thin sections were stained with hematoxylin and eosin (H&E) according to the manufacturer's instructions. For immunohistochemistry (IHC), paraffin-embedded sections of femurs were baked at 60 °C for 20 min, deparaffinized by xylene for 25 min, rehydrated through ethanol series, and incubated with citrate buffer at 95 °C for 20 min for antigen retrieval. Sections were incubated with the primary antibodies as indicated overnight at 4 °C, followed by goat anti-rabbit secondary antibody. The primary antibodies used in this study include Bcl-xL (1:2000, ab178844, Abcam) and Gli1 (1:100, 101156-T10, Sino Biological).

Bcl-xL [3] = target: Bcl-xL (Homo sapiens, UniProt Q07817); experiment: Competitive fluorescence polarization assay, Bcl-xL / FAM-Bad; type: binding; settings: Bcl-xL 5 nM, FAM-Bad 5 nM
Bcl-xL (Homo sapiens, UniProt Q07817), sequence (Q07817 whole entry, species assumed): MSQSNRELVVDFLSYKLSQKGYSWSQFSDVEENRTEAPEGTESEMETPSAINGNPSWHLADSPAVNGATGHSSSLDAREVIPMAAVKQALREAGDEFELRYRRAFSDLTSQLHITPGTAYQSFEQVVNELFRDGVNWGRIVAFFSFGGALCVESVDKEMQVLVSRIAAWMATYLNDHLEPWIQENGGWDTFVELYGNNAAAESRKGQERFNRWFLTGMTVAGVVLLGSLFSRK
Description: Competitive fluorescence polarization assays were carried out in black-walled plates in assay buffer (20 mM Na2HPO4 ·12H2O, 20 mM NaH2PO4·12H2O, 1 mM EDTA, 50 mM NaCl, 0.05% PF-68). The use of protein/peptide probe pairs was as follows: Bcl-xL (5 nM) and FAM-Bad (5 nM), Bcl-2 (100 nM) and FAM-Bax (5 nM), Mcl-1 (100 nM) and FAM-Bim (5 nM). Assay buffer, proteins, drugs, and peptides were added to the assay plates sequentially. The assay plates were slightly shaken for 3 min and incubated for 30 min at room temperature. The fluorescence polarization was measured on a Synergy 2 reader (BioTek).

Wnt signaling pathway = experiment: TCF/LEF luciferase reporter assay in LS174T cells; type: cell-based; settings: PGE2 1 μM, 24 h, SIAIS361034 10 μM, H-89 20 μM
Description: Cells seeded in 96-well plates were treated with various treatments as indicated. The luciferase activity in the cell lysates was measured using Dual-Luciferase Reporter Assay System (Promega, Madison, WI, USA) according to the manufacturer's instructions in a luminometer (Molecular Devices, Sunnyvale, CA). The firefly luciferase values were normalized to Renilla values. […]
μM) for 6 h. Data represent mean ± SD (n = 3). (C) TCF/LEF luciferase analysis of the effect of SIAIS361034 on Wnt signaling pathway in LS174T cells. The LS174T cellswere transfected with TCF/LEF luciferase reporter and Renilla-TK plasmids and […]
Data represent mean ± SD (n = 3).
(1 picture or pasted object on this page, not shown here)

Bcl-xL [4] = target: T1, Bcl-xL (Mus musculus, UniProt Q64373); experiment: Western blot of Bcl-xL degradation in NIH-3T3 cells; type: cell-based
T1 construct: endogenous in cells; host or cells: NIH-3T3
T1 sequence (Q64373 whole entry): as the sequence (Q07817 whole entry, species assumed) above, with G40E, S43A, M45R, A168S, E193D counted along it
Description: as §1

## CC1(C)CCC(c2ccc(Cl)cc2)=C(CN2CCN(c3ccc(C(=O)NS(=O)(=O)c4ccc(NCCCN5CCN(CCCC#Cc6cccc7c6CN(C6CCC(=O)NC6=O)C7=O)CC5)c(S(=O)(=O)C(F)(F)F)c4)cc3)CC2)C1 (stereo not shown) [SIAIS361034]
Bcl-2 and Mcl-1
  levels of Bcl-2 and Mcl-1: did not change the levels of Bcl-2 and Mcl-1
[1]
  abundance of CRBN neo-substrates IKZF1, IKZF3, SALL4, GSPT1: did not affect abundance
[2]; cross sections of the femur, mice treated P12 to P16
  columnar organization of chondrocytes in the growth plate (H&E): not destroyed
[2]; mice at 6 weeks of age, treated P12 to P16
  skeleton (Micro-CT): no abnormalities in the skeleton
[2]; mice treated P12 to P16
  growth plate of femurs (Micro-CT) compared with Vehicle: no significant difference
  levels of Bcl-xL in femurs (IHC): No change
[2]; mice treated P12 to P16, compared with Vehicle
  expression levels of Gli1 in femurs (IHC): no alteration
Bcl-xL [3]
  Ki: 37.3 nM
Wnt signaling pathway
  TCF/LEF luciferase activity (Wnt signaling) activated by PGE2: failed to repress
Bcl-xL [4]; 1 µM for 24 h followed by drug withdrawal
  duration of Bcl-xL degradation: around 48 h
Bcl-xL [4]; 1 µM, western blot
  Bcl-xL degradation: significantly degraded Bcl-xL
Bcl-xL [4]; NIH3T3, 24 h, western blot, read-out: maximum degradation (Dmax) of Bcl-xL
  Dmax: 88.1%
Bcl-xL [4]; data not shown
  effect on Bcl-xL mRNA levels: almost no effect
